Measurements taken from patent publication US11091479B2, “Triazolopyridin-3-ones or their salts and pharmaceutical compositions comprising the same” (YUHAN CORPORATION, priority 2018, dated 2021).
Where a name gives a salt, the structure may show the parent alone.

Assays:
Assay type in all cases: biochemical
recombinant human VAP-1 = molecular target: T1, recombinant human VAP-1 (Homo sapiens, UniProt Q16853); experiment: Activity on recombinant human VAP-1, HRP-coupled Amplex Red hydrogen peroxide assay, benzylamine substrate; conditions: 30 min incubation at 37° C., 1 mM benzylamine, read-out: Inhibitory Activity (IC50, nM) human VAP-1
T1 construct: purchased R&D systems
T1 sequence (Q16853 1-763): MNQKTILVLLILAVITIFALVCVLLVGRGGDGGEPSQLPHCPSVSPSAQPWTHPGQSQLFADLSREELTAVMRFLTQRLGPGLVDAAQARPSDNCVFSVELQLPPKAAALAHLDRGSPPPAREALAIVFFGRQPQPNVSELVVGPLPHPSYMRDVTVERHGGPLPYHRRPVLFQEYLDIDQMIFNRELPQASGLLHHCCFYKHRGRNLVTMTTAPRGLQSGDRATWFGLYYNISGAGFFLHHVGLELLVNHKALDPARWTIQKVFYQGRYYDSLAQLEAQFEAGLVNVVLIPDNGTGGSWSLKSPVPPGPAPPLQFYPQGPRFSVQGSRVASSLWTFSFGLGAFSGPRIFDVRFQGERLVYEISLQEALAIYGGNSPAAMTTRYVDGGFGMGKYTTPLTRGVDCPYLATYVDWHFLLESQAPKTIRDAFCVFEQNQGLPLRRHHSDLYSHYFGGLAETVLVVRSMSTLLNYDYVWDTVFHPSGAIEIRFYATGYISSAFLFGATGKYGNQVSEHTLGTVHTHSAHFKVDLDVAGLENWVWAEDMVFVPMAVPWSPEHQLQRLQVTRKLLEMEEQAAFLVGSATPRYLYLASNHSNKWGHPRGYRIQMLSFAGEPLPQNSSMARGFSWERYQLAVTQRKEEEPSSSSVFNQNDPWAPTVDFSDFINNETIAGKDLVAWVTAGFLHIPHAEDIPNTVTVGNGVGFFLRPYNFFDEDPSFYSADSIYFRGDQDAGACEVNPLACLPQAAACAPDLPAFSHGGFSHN
Description: (§1) The compounds according to the present technology were evaluated in terms of activity on recombinant human VAP-1 (R&D systems) by measuring the level of hydrogen peroxide in horseradish peroxidase (HRP)-coupled reaction using Amplex Red Hydrogen Peroxide Assay Kit (Molecular Probes, Invitrogen, USA). The experiment was carried out at room temperature using benzylamine as a substrate. In the HRP-coupled reaction, hydrogen peroxide oxidation of 10-acetyl-3,7-dihydroxyphenoxazine (Amplex Red reagent) produces resorufin, which is a highly fluorescent compound. Briefly, the test compound was dissolved in dimethyl sulfoxide (DMSO) at a concentration of 20 mM. The dose-response assessment was made by 1:3 serial dilution in DMSO, thereby creating a 8 point curve. The concentration of the upper part was controlled according to the efficacy of the compounds, followed by dilution with a reaction buffer solution to obtain a final DMSO concentration of less than 1%. To each well of a 96 black well plate, human VAP-1 purified in 50 mM sodium phosphate buffer solution (pH7.4) was added. The test compounds dissolved in DMSO were incubated with the human VAP-1 enzymes at 37° C. for 30 minutes. After 30-minute incubation, each well was added with a reaction mixture containing 200 uM Amplex Red reagent prepared from 50 mM sodium phosphate buffer solution (pH 7.4), 1 mM benzylamine, and 1 U/mL HRP. Fluorescence intensity was measured at several time points during 1-2 hours using a microplate reader (Flexstation3, Molecular Devices) under the wavelength condition exciting at 544 nm and reading the emission at 590 nm. The inhibitory effect of the compounds was measured as a decrease (%) in the signal rate as compared to the control group without any inhibitor (only diluted DMSO). Data was fixed to a logistic model with four variables and IC50 value was calculated using GraphPad Prism program.

[1] = molecular target: T2, recombinant human MAO-A (monoamine oxidase-A) (Homo sapiens, UniProt P21397); experiment: Activity on recombinant human MAO-A, method similar to VAP-1 assay, 0.5 mM tyramine substrate; conditions: read-out: Inhibitory Activity (IC50, nM) MAO-A
T2 construct: purchased Sigma-Aldrich
T2 sequence (P21397 1-527): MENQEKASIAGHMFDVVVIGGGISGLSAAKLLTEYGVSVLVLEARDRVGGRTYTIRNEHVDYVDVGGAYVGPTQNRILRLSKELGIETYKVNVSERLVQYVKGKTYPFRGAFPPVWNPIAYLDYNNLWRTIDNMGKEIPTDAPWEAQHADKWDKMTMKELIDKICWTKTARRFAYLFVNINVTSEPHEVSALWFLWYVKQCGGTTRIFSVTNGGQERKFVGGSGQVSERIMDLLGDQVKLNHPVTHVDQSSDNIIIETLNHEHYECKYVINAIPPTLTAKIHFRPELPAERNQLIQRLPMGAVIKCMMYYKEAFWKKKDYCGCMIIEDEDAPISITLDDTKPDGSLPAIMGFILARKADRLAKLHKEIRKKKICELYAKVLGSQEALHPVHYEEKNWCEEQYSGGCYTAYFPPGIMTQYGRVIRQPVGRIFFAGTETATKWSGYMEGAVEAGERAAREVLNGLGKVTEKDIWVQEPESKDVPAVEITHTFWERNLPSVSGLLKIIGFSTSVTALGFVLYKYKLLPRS
Description: as §1
(§2) In addition, the compounds according to the present technology were evaluated in terms of activity on a recombinant human MAO-A (monoamine oxidase-A, Sigma-Aldrich) and a recombinant human MAO-B(monoamine oxidase-B, Sigma-Aldrich) by using as substrates, 0.5 mM tyramine and 1 mM benzylamine, respectively, with a method similar to the activity evaluation method for recombinant human VAP-1. The compounds according to the present technology were also evaluated in terms of activity on a recombinant human DAO (diamine oxidase, R&D systems) by using as a substrate 1 mM putrescine with a method similar to the activity evaluation method for recombinant human VAP-1.

[2] = molecular target: T3, recombinant human DAO (diamine oxidase) (Homo sapiens, UniProt P19801); experiment: Activity on recombinant human DAO, method similar to VAP-1 assay, 1 mM putrescine substrate; conditions: read-out: Inhibitory Activity (IC50, nM) DAO
T3 construct: purchased R&D systems
T3 sequence (P19801 20-751): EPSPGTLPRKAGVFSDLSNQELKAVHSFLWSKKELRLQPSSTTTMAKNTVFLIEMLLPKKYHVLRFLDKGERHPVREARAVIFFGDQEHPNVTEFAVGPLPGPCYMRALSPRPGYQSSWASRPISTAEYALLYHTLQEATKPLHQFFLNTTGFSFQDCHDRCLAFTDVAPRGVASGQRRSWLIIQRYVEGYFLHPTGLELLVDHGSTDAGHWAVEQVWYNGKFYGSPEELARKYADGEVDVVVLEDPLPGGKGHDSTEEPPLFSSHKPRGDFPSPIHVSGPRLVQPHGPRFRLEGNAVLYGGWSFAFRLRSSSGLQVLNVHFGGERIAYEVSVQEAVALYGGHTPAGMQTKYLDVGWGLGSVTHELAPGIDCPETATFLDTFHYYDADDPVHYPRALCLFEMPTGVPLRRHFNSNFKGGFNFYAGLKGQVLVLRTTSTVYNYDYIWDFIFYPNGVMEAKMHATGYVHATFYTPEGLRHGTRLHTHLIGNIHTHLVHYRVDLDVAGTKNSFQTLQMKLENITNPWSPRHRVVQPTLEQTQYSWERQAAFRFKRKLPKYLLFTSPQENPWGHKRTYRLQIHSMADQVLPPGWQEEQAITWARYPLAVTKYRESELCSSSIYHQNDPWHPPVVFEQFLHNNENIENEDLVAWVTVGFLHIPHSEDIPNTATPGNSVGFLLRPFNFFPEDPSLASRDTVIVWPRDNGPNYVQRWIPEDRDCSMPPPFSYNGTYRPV
Description: as §1, §2

[3] = molecular target: T4, recombinant human MAO-B (monoamine oxidase-B) (Homo sapiens, UniProt P27338); experiment: Activity on recombinant human MAO-B, method similar to VAP-1 assay, 1 mM benzylamine substrate; conditions: read-out: Inhibitory Activity (IC50, nM) MAO-B
T4 construct: purchased Sigma-Aldrich
T4 sequence (P27338 1-520): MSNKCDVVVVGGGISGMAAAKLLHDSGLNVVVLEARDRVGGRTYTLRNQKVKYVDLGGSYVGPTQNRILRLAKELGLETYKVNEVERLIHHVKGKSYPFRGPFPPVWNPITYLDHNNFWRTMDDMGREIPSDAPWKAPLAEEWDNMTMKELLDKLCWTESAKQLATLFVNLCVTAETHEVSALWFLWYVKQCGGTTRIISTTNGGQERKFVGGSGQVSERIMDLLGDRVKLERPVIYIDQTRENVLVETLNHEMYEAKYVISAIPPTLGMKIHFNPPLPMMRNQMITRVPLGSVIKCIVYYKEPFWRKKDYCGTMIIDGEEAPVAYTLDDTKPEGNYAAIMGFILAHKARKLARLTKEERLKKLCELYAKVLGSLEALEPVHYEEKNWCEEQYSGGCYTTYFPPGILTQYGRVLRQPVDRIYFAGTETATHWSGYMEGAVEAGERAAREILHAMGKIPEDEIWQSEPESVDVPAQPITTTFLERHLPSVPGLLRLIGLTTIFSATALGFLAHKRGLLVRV
Description: as §1, §2

Compound | IC50 (recombinant human VAP-1) [nM] | IC50 [1] [nM] | IC50 [2] [nM] | IC50 [3] [nM]
CN(C)Cc1ccccc1-c1ccn2c(=O)n(C/C(=C/F)CN)nc2c1 [Example 23, 2-[(2E)-2-(aminomethyl)-3-fluoroprop-2-en-1-yl]-7-2-[(dimethylamino)methyl]phenyl[1,2,4]triazolo[4,3-a]pyridin-3(2H)-one hydrochloride] | 7 | > 10000 | 37 | > 10000
NC/C(=C\F)Cn1nc2ccc(-c3ccc(S(=O)(=O)N4CCOCC4)cc3)cn2c1=O [Example 4, 2-[(2E)-2-(aminomethyl)-3-fluoroprop-2-en-1-yl]-6-[4-(morpholin-4-ylsulfonyl)phenyl][1,2,4]triazolo[4,3-a]pyridin-3(2H)-one trifluoroacetate] | 6.2 | > 100000 | < 100 | > 10000
NC/C(=C\F)Cn1nc2cc(-c3ccc(-c4cnon4)cc3)ccn2c1=O [Example 27, 2-[(2E)-2-(aminomethyl)-3-fluoroprop-2-en-1-yl]-7-[4-(1,2,5-oxadiazol-3-yl)phenyl][1,2,4]triazolo[4,3-a]pyridin-3(2H)-one hydrochloride] | 0.6 | 1450 | 1.8 | 67
NC/C(=C\F)Cn1nc2cc(-c3ccc4nonc4c3)ccn2c1=O [Example 38, 2-[(2E)-2-(aminomethyl)-3-fluoroprop-2-en-1-yl]-7-(2,1,3-benzoxadiazol-5-yl)[1,2,4]triazolo[4,3-a]pyridin-3(2H)-one hydrochloride] | 0.2 | 3500 | 0.4 | < 10
NC/C(=C\F)Cn1nc2cc(-c3cccc(-c4cc[nH]n4)c3)ccn2c1=O [Example 26, 2-[(2E)-2-(aminomethyl)-3-fluoroprop-2-en-1-yl]-7-[3-(1H-pyrazol-3-yl)phenyl][1,2,4]triazolo[4,3-a]pyridin-3(2H)-one hydrochloride] | 0.2 | > 100000 | 1.9 | < 10

Now from value to compound:

IC50 (recombinant human VAP-1) [nM] | IC50 [1] [nM] | IC50 [2] [nM] | IC50 [3] [nM] | Compound
7 | > 100000 | 42000 | > 100000 | NCC(Cn1nc2cc(Br)ccn2c1=O)=C(F)F [Example 47, 2-[2-(aminomethyl)-3,3-difluoro-allyl]-7-bromo-[1,2,4]triazolo[4,3-a]pyridin-3-one trifluoroacetate]
0.3 | 5400 | 1 | 1400 | NC/C(=C\F)Cn1nc2cc(-c3ccc4c(c3)NC(=O)CO4)ccn2c1=O [Example 42, 6-[2-[(2E)-2-(aminomethyl)-3-fluoroprop-2-en-1-yl]-3-oxo-2,3-dihydro[1,2,4]triazolo[4,3-a]pyridin-7-yl]-2H-1,4-benzoxazine-3 (4H)-one hydrochloride]
0.4 | > 100000 | 17 | 150 | CN(C)c1ccc(-c2ccn3c(=O)n(CC(CN)=C(F)F)nc3c2)cn1 [Example 51, 2-[2-(aminomethyl)-3,3-difluoro-allyl]-7-[6-(dimethylamino)-3-pyridyl]-[1,2,4]triazolo[4,3-a]pyridin-3-one trifluoroacetate]
0.3 | > 100000 | 120 | 6200 | CN(C)c1ccc(C#Cc2ccn3c(=O)n(CC(CN)=C(F)F)nc3c2)cn1 [Example 57, 2-[2-(aminomethyl)-3,3-difluoro-allyl]-7-[2-[6-(dimethylamino)-3-pyridyl]ethynyl]-[1,2,4]triazolo[4,3-a]pyridin-3-one trifluoroacetate]
0.5 | > 100000 | 9.6 | 140 | Cc1cc(-c2ccn3c(=O)n(C/C(=C/F)CN)nc3c2)cc2c1NC(=O)CC2 [Example 43, 6-[2-[(2E)-2-(aminomethyl)-3-fluoroprop-2-en-1-yl]-3-oxo-2,3-dihydro[1,2,4]triazolo[4,3-a]pyridin-7-yl]-8-methyl-3,4-dihydroquinolin-2(1H)-one hydrochloride]
1 | > 100000 | 6300 | 2500 | Cn1cc(C#Cc2ccn3c(=O)n(CC(CN)=C(F)F)nc3c2)cn1 [Example 56, 2-[2-(aminomethyl)-3,3-difluoro-allyl]-7-[2-(1-methylpyrazol-4-yl)ethynyl]-[1,2,4]triazolo[4,3-a]pyridin-3-one trifluoroacetate]
